Data on 14 molecules can be found in patent publication US10072293B2, “Systems, models and methods for identifying and evaluating skin-active agents effective for treating dandruff/seborrheic dermatitis” (The Procter and Gamble Company, priority 2011, dated 2018).

“And” between values parts separate entries of the source, which are not always exact repeats. Identical values can stand only once.

For experiment [1], the system named is human 3-dimensional organotypic cultures. Description: In vitro model of dandruff: organotypic skin cultures given IL-22 and IL-17A. Format: cell-based. To be noted: organotypic cultures treated with IL-22 and IL-17A. From the text: In some embodiments, the methods of the present invention may further comprise testing the selected candidate cosmetic agent, using in vitro assays and/or in vivo testing, to validate the activity of the agent and usefulness as a cosmetic agent. Any suitable in vitro test method can be used, including those known in the art, and most preferably in vitro models developed in accordance with the present invention. For example, MatTek human skin equivalent cultures or other skin equivalent cultures may be treated with one or a combination of perturbagens selected for mimicry of the skin condition of interest with respect to regulation of the genes constituting a physiological theme pattern for the skin condition of interest. The treated skin culture replicates the, for example, dandruff condition where it is treated with IL17 and IL22 in accordance with the instant invention, and perturbagens may be screened for their ability to shift the homeostatic equilibrium of the treated skin culture toward healthy skin, as determined by transcriptional analysis. Skin biopsy assays may also be used to evaluate candidate skin-active agents as anti-dandruff agents. In some embodiments, evaluation of selected agents using in vitro assays may reveal, confirm, or both, that one or more new candidate cosmetic agents may be used in conjunction with a known cosmetic agent (or a combination of known cosmetic agents) to regulate a skin condition of interest.
A great challenge in the identification of new therapeutics is the development of in vitro models that are predictive of clinical efficacy. Because no animal models of the dandruff condition are available, there is a need for a model with high fidelity to the internal disease state so that it recapitulates the key features of dandruff lesional skin in vivo. The challenge of developing a good in vitro model for skin conditions such as dandruff is complicated by the fact that the events that trigger the development of dandruff are poorly understood. Transcriptomic profiling work in dandruff lesional skin has provided many new clues, chief among them evidence for a Th-17 driven inflammatory process.
These substances include selenium sulfide, ZPT, ketoconazole, clobetasol propionate and the iron chelator 1,10-phenanthroline.
The in vitro disease simulation according to the invention produces a pattern of gene expression that strongly resembles dandruff lesional skin. Affymetrix U133A Plus 2 microarrays were used to evaluate the gene expression profile elicited by exposure of organotypic human skin cultures to a variety of proinflammatory cytokines individually and in combination, as set forth in FIG. 21A and FIG. 21B. […] This strongly supports that the simulation is producing a gene expression pattern that resembles the disease condition.

The subject of experiment [2] is scalp skin of dandruff subjects. Nature of the experiment: ZPT transcriptomics study: double-blind, vehicle-controlled shampoo treatment, scalp biopsy gene expression. Format: in vivo, human. Particulars: shampoo with 1% ZPT, 3 times a week for 3 weeks, week 3. From the text: 1) 31 healthy male subjects aged 18-75 were divided into two groups of 16 “non-dandruff” and 15 “dandruff” subjects, as defined by a published flake scoring procedure, adherent scalp flake score (ASFS). […] 2) In a double-blinded treatment study, 45 healthy male subjects (30 dandruff and 15 non-dandruff as defined by ASFS criteria, aged 18-50 years) were enrolled and were shampooed at the clinical site three (3) times a week for three (3) weeks with either a commercially available anti-dandruff shampoo with 1% ZPT (15 dandruff subjects) or the same formula without ZPT (15 dandruff and 15 non-dandruff subjects). Full thickness 2 mm biopsies were collected from all three groups at baseline and end of study. Total RNA was extracted from the biopsies and labeled for Affymetrix GeneChip® analysis. The synthesized target cRNA was hybridized to Affymetrix HG U133A microarrays. Statistically analyzed data were filtered by significance (p<0.05, Dandruff vs. Non-Dandruff; ZPT vs. vehicle treatments) to identify genes showing an increase or decrease in expression level, a standard bioinformatics approach. Methodology and Results of Study 1:
The subject's hair/scalp was washed by study personnel on clinical site 3×/week for 3 weeks. Full thickness 2 mm punch biopsies collected at baseline and end of study. […]

Experiment [3] deals with fibroblast and keratinocyte cell lines. Nature of the experiment: C-map query with lipid-immune dandruff signature, whole database. Format: cell-based, human. To be noted: each agent tested at several concentrations. On the procedure:
(§1) Human telomerized keratinocytes (tKC) were obtained from the University of Texas, Southwestern Medical Center, Dallas, Tex. tKC cells were grown in EpiLife® media with 1× Human Keratinocyte Growth Supplement (Invitrogen, Carlsbad, Calif.) on collagen I coated cell culture flasks and plates (Becton Dickinson, Franklin Lakes, N.J.). Keratinocytes were seeded into 6-well plates at 20,000 cells/cm^2 24 hours before chemical exposure. Human skin fibroblasts (BJ cell line from ATCC, Manassas, Va.) were grown in Eagle's Minimal Essential Medium (ATCC) supplemented with 10% fetal bovine serum (HyClone, Logan, Utah) in normal cell culture flasks and plates (Corning, Lowell, Mass.). BJ fibroblasts were seeded into 6-well plates at 12,000 cells/cm^2 24 hours before chemical exposure.
Each agent was tested at several concentrations.

The subject of experiment [4] is Human telomerized keratinocytes (tKC). Description: C-map query with lipid metabolism / immune-inflammation dandruff gene signature, keratinocyte instances. The format is cell-based.
Source text: In a very specific embodiment, an instance consists of the rank ordered data for all of the probe sets on the Affymetrix HG-U133A2.0 GeneChip wherein each probe on the chip has a unique probe set IDentifier. The probe sets are rank ordered by the fold change relative to the controls in the same C-map batch (single instance/average of controls).
Individual experiments (referred to as batches) generally comprise 30 to 96 samples analyzed using Affymetrix GeneChip® technology platforms, containing 6 replicates of the vehicle control (e.g., DMSO), 2 replicate samples of a positive control that gives a strong reproducible effect in the cell type used, and samples of the test material/perturbagen. Replication of the test material is done in separate batches due to batch effects. In vitro testing was performed in 6-well plates to provide sufficient RNA for GeneChip® analysis (2-4 μg total RNA yield/well).
as §1
All cells were incubated at 37° C. in a humidified incubator with 5% CO2. At t=−24 hours cells were trypsinized from T-75 flasks and plated into 6-well plates in basal growth medium. At t=0 media was removed and replaced with the appropriate dosing solution as per the experimental design.

The test system of the next experiment is MCF7. Description: C-map query with lipid metabolism / immune-inflammation dandruff gene signature, MCF7 instances. To be noted: MCF7, 10 μM.
The subject of experiment [5] is reconstituted human epidermis (RHE). Description: Connectivity map linkage scores, inflammatory skin disorder signature (top 70 up / 70 down), RHE instances. Format: cell-based. Also on record: scale not given here. The source says:
(§2) Gene expression data from five inflammatory skin disorders (acne, atopic dermatitis, dandruff, eczema and psoriasis) were collected from a clinical genomics study and published studies. The raw expression data were used to produce a rank-ordered list of most differentially regulated genes associated with inflammatory skin disorders.
The derived gene signature was used to query a provided database comprising gene expression data from clinical genomics studies of a widely different inflammatory skin disorders, published in vitro genomics studies of disparate inflammatory skin disorders, and genomics data from an internal in vitro model of dandruff inflammatory pathology (human organotypic, MatTek, cultures).

The test system of experiment [6] is human keratinocytes (hKC). Nature of the experiment: Connectivity map linkage scores, inflammatory skin disorder signature, hKC instances. The format is cell-based.
Source text: as §2
The derived gene signature was used to query a provided database comprising gene expression data from clinical genomics studies of a widely different inflammatory skin disorders, published in vitro genomics studies of disparate inflammatory skin disorders, and genomics data from an internal in vitro model of dandruff inflammatory pathology (human organotypic, MatTek, cultures). […] Thus, the internal model was validated as being useful for study of inflammatory cascades and other gene expression alterations associated with inflammatory skin disorders.

Turning to `c1cnc2c(c1)ccc1cccnc12` [1,10-phenanthroline], the “Blocking of IL-22/IL-17A-induced responses (hyperplasia, perturbed differentiation markers, IL-8 secretion)” value in experiment [1] is given as “capable of blocking these responses”.
`[O-]n1ccccc1=S.[O-]n1ccccc1=S.[Zn+2]` [ZPT, zinc salt of 1-hydroxy-2-pyrithione]: the “Blocking of IL-22/IL-17A-induced responses (hyperplasia, perturbed differentiation markers, IL-8 secretion)” value in experiment [1] was “capable of blocking these responses”. The “Scalp gene expression profile shift (~3700 significantly altered genes, hierarchical clustering)” value in experiment [2] was “expression shift toward the non-dandruff condition”. The “Linkage to lipid-immune dandruff gene signature” value in experiment [3] is given as “not in the list of instances strongly linked to the gene signature”.
Take `CCC(=O)O[C@]1(C(=O)CCl)[C@@H](C)C[C@H]2[C@@H]3CCC4=CC(=O)C=C[C@]4(C)[C@@]3(F)[C@@H](O)C[C@@]21C` [Clobetasol Propionate]: in experiment [1], the “Blocking of IL-22/IL-17A-induced responses (hyperplasia, perturbed differentiation markers, IL-8 secretion)” value is on record as “capable of blocking these responses”.
As for `O=C(O)Cc1cc(I)c(Oc2ccc(O)c(I)c2)c(I)c1` [Triac], the “Score (connectivity score)” value in experiment [4] (10 μM, exposure time not given) is given as −0.53.
For the molecule `CN(CCOc1ccc(CC2SC(=O)NC2=O)cc1)c1ccccn1` (centres unmarked) [Rosiglitazone], the “Score (connectivity score)” value in the experiment on MCF7 is listed as −0.51.
`CC(C)(C)C(=O)C(Oc1ccc(Cl)cc1)n1ccnc1` (centres unmarked) [Climbazole]: the “Score (connectivity score)” value was −0.55 in experiment [4] (1 μM, 6hr (chip ID)) and −0.67 in experiment [4] (10 μM, 24hr (chip ID)).
Regarding `CC(=O)N1CCN(c2ccc(OCC3COC(Cn4ccnc4)(c4ccc(Cl)cc4Cl)O3)cc2)CC1` (centres unmarked) [Ketoconazole], the “Score (connectivity score)” value in experiment [4] (1 μM, 24hr (chip ID)) is recorded as −0.58. Further, the “Blocking of IL-22/IL-17A-induced responses (hyperplasia, perturbed differentiation markers, IL-8 secretion)” value in experiment [1] was “capable of blocking these responses”.
For `S=[Se]=S` [selenium sulfide], in experiment [1], the “Blocking of IL-22/IL-17A-induced responses (hyperplasia, perturbed differentiation markers, IL-8 secretion)” value was “capable of blocking these responses”. In experiment [3], the “Linkage to lipid-immune dandruff gene signature” value is listed as “not in the list of instances strongly linked to the gene signature”.
Turning to IL1b: interleukin, in experiment [5] (10 ng/ml), the Score was 0.710 and 0.649; the “Up Score” value is 0.420 and 0.380.
In the case of “HK23/2 IL17: interleukin; proinflammatory cytokine produced by Th-17 cells”, in experiment [6] (200 ng/ml), the “Down Score” value is reported as −0.151, the Score is recorded as 0.579 and the “Up Score” value was 0.428.

B1: IL19: interleukin (protein, UniProt Q9UHD0 25-177, looked up)
Interleukin-19: LRRCLISTDMHHIEESFQEIKRAIQAKDTFPNVTILSTLETLQIIKPLDVCCVTKNLLAFYVDRVFKDHQEPNPKILRKISSIANSFLYMQKTLRQCQEQRQCHCRQEATNATRVIHDNYDQLEVHAAAIKSLGELDVFLAWINKNHEVMFSA
Consider B1, for which, in experiment [5] (20 ng/ml), the Score is 0.749 and 0.729 and 0.807; the “Up Score” value was 0.410 and 0.460 and 0.505.

B2: IL22: interleukin; proinflammatory cytokine produced by Th-17 cells (protein, UniProt Q9GZX6 34-179, looked up)
Interleukin-22: APISSHCRLDKSNFQQPYITNRTFMLAKEASLADNNTDVRLIGEKLFHGVSMSERCYLMKQVLNFTLEEVLFPQSDRFQPYMQEVVPFLARLSNRLSTCHIEGDDLHIQRNVQKLKDTVKKLGESGEIKAIGELDLLFMSLRNACI
Take B2: in experiment [6] (200 ng/ml), the “Down Score” value was −0.214, the Score is on record as 0.573 and the “Up Score” value came out at 0.358. In experiment [5] (20 ng/ml), the Score is 0.789 and 0.740 and 0.705; the “Up Score” value is 0.444 and 0.410 and 0.388.

B3: IL24: interleukin (protein, UniProt Q13007 52-206, looked up)
Interleukin-24: QEFHFGPCQVKGVVPQKLWEAFWAVKDTMQAQDNITSARLLQQEVLQNVSDAESCYLVHTLLEFYLKTVFKNYHNRTVEVRTLKSFSTLANNFVLIVSQLQPSQENEMFSIRDSAHRRFLLFRRAFKQLDVEAALTKALGEVDILLTWMQKFYKL
On to B3, for which, in experiment [5] (20 ng/ml), the Score was 0.833 and 0.829 and 0.801; the “Up Score” value is 0.485 and 0.517 and 0.461.

B4: IFNg: interferon (protein, UniProt P01579 24-161, looked up)
Interferon gamma: QDPYVKEAENLKKYFNAGHSDVADNGTLFLGILKNWKEESDRKIMQSQIVSFYFKLFKNFKDDQSIQKSVETIKEDMNVKFFNSNKKKRDDFEKLTNYSVTDLNVQRKAIHELIQVMAELSPAAKTGKRKRSQMLFRG
For the molecule B4, in experiment [6] (20 ng/ml), the “Down Score” value is on record as −0.102, the Score is 0.552 and the “Up Score” value stood at 0.450. Also, in experiment [5] (10 ng/ml), the Score is 0.665 and 0.657; the “Up Score” value was 0.420 and 0.431.
